Measurements taken from US20110065919A1, “5-Substituted Indol-3-Carboxylic Acid Derivatives Exhibiting Antiviral Activity a Method for the Production and Use Thereof” (priority 2007, published 2011).
Values after ≈ are worked out from the molar mass of the structure shown. Where two headings read alike, the source gives them in different places.

What was measured:
[1] = system: MDCK tissue culture cells; test: Cytotoxic action, maximal tolerated concentration in MDCK tissue culture cells
[2] = system: influenza A/New Caledonia/20/99 (H1N1) virus reference strain; test: microbe, parasite or virus in culture; assay type: cell-based; conditions: for Activity at 10 μg/mL / specific activity in relation to influenza A virus reference strain (H1N1), in words / MIC50: MDCK cells; for MIC50: concentration inhibiting viral reproduction by 50%; for Chemotherapeutic Index: ratio of the MTC to the MIC50
[3] = system: influenza A/Aichi/2/69 virus; test: Murine influenza pneumonia model; assay type: in vivo, mice; conditions: mean life span, 60 mg/kg/day, survivors counted with d=15
Experimental: (§1) 2. Determination of the efficacy of the compounds in the murine influenza pneumonia model.
(§2) The mice were infected intranasally under light ether anesthesia with the influenza A/Aichi/2/69 ([…]) virus. […] The efficacy of the action of the compounds in the influenza pneumonia model were assessed according to the number of mice surviving after infection with the virus and the increase in mean life span
(§3) The mean life span of the mice was calculated according to the following formula: MSD [mean survival day]=Σ(f(d−1)[…], where f is the number of mice dying on day d; the surviving mice were also included in f, and d in this case was 15; n is the number of mice in the group.

[4] = system: influenza A/Aichi/2/69 (H3N3) virus; test: Murine influenza pneumonia model; assay type: in vivo, mice; conditions: for Mortality reduction: versus infected control; for Survived: number of mice surviving, n=10, 60 mg/kg/day
Experimental: as §1, §2, §3

Row | Compound | MTC of the Compounds [1] [µg/mL] | efficacy at 10 μg/mL compared with arbidol, in words [2] | Activity at 10 μg/mL [2] | specific activity in relation to influenza A virus reference strain (H1N1), in words [2] | MIC50 [2] [µg/mL] | Chemotherapeutic Index [2] | Life Span [3] [days] | Mortality ([4]; 60 mg/kg/day) [%] | chemotherapeutic action compared with arbidol, in words ([4]; 60 mg/kg/day) | Mortality reduction ([4]; 60 mg/kg/day) [%] | Survived [4] | MIC50 ([2]; Influenza A virus, H1N1, read-out: MIC50) [µg/mL]
1 | 1-{6-Bromo-1-methyl-5-methoxy-2-(phenylthio)methyl-1-H-indol-3-yl}-benzylpiperazine | 40 | inferior to arbidol in efficacy | 64.4 | high specific activity | 5.8 | 6.9 | 13.1 | 20 | not inferior to arbidol | 61 | 8 | 
2 | CCOC(=O)c1c(CSc2ccccc2)n(C)c2cc(Br)c(O)c(CN(C)C)c12 [Arbidol, 1-methyl-2-phenylthiomethyl-3-carbethoxy-4-dimethylaminomethyl-5-hydroxy-6-bromindol, reference compound] | 40 |  | 100.0 |  |  | 6.7 | 12.2 | 20 |  | 61 | 8 | 6 (≈ 12.6 µM)
3 | COc1cc2c(C(=O)N3CCCC3)c(CSc3ccccc3)n(C)c2cc1Br [B] | 15 | did not differ from it | 100.0 | high specific activity | 2.0 (≈ 4.35 µM) | 7.5 |  |  |  |  |  | 
4 | COc1cc2c(C(=O)N3CCCCC3)c(CSc3ccccc3)n(C)c2cc1Br [C] | 25 |  | 52.1 | low activity | 9.2 (≈ 19.4 µM) | 2.7 |  |  |  |  |  | 
